pIC50: −log10 of the molar value. Where two headings read alike, the source gives them in different places.

For series [1], the target named is T1, human 11β-HSD1 (Homo sapiens, UniProt P28845).
T1 construct: stably transfected with a construct containing the full-length gene coding for the human 11β-HSD1 enzyme; expressed in transfected cells; host or cells: HEK293 (stably transfected, HEK293/11β-HSD1)
As to the kind of experiment: Cellular in vitro 11β-HSD1 enzyme inhibition assay (SPA, HEK293/11β-HSD1 cells). It is filed as cell-based. The following applies: HEK293, potency groups, read-out: IC50 for 11β-HSD1 (HEK293); for IC50: μM. The protocol:
Compounds were assessed by a Scintillation Proximity Assay (SPA) performed according to the following protocol:
HEK293 cells were stably transfected with a construct containing the full-length gene coding for the human 11β-HSD1 enzyme to create HEK293/11β-HSD1 cells. Cells were routinely cultured in DMEM containing 10% calf foetal serum, 1% glutamine, and 1% penicillin and streptomycin. Prior to assay, cells were plated at 2×10^4 cells/well in 96-well poly-D-Lys coated flat-bottomed microplates and incubated in 5% CO2, 95% O2 at 37° C. for 24 hours. The media in each well was removed immediately before assay.
Compounds to be tested were dissolved in DMSO at 10 mM and serially diluted into water containing 10% DMSO. Diluted compounds at a volume of 10 μL were added to wells of a 96-well V-bottomed microplate. A solution of DMEM, 1% glutamine, 1% penicillin and streptomycin, and 22 nM tritiated cortisone was prepared and 90 μL added to each well of the assay plate. This solution (100 μL/well) was transferred to the plate containing the cells. The plate was then incubated in 5% CO2, 95% O2 at 37° C. for 2 hours.
Following this incubation, 50 μL of the assay solution was transferred to each well of a 96-well scintillation microplate. A mixture consisting of anti-mouse YSi SPA beads, pre-mixed with anti-cortisol antibody in assay buffer (50 mM Tris.HCl, pH 7.0; 300 mM NaCl; 1 mM EDTA, 5% glycerol) was prepared and 50 μL added to each well of the scintillation microplate. An adhesive strip was applied to the microplate and the plate gently shaken for at least 2 hours at room temperature, and then spun briefly on a low speed centrifuge. The plate was read on a scintillation counter suitable for 96-well microplates. For the calculation of percentage inhibition, a series of wells were added to the plate that represented the assay maximum and the assay minimum: one set that contained substrate without cells (minimum) and another set that contained substrate and cells without any compound (maximum).
The calculation of median inhibitory concentration (IC50) values for the compounds was performed using GraphPad Prism® software. Dose-response curves for each compound were plotted as fractional inhibition and data fitted to the four parameter logistic equation.

A short description of series [2]: In vitro human liver microsomal stability assay. It is filed as in vitro ADME. As to conditions: human liver microsomes. The protocol: To predict in vivo metabolism of compounds, the stability of compounds incubated with human liver microsomes in vitro was determined. Human liver microsome preparations were stored at −80° C. and thawed on ice prior to use. The thawed microsomes were diluted to a concentration of 2 mg/mL in 50 mM sodium phosphate, pH 7.4. Reference and test compounds were prepared as 10 mM stocks in 100% DMSO and diluted to 1 mM in acetonitrile before use. Each compound was tested in triplicate as follows:
4 μL of test or reference compound was added to a well of a 24-well microplate and 0.5 mL of 4 mM NADPH added. The plate was then transferred to a shaker for 10 minutes at room temperature. 30 μL of the compound/NADPH solution was transferred to the well of a 96-well microplate and incubated at 37° C. for 5 minutes. 30 μL of human liver microsomes (pre-incubated at 37° C. for 5 minutes) was added to the well containing the compound/NADPH solution and the plate incubated for the selected period of time (typically 0 or 30 minutes). The reaction was stopped by adding 60 μL of ice cold […] trichloroacetic acid. The plate was centrifuged at 1000 rpm for 5 minutes at room temperature and the supernatant transferred to the well of a new 96-well V-bottomed microplate for mass spectrometric analysis.
Samples were analyzed by TSQ Quantum Discovery Tandem Mass Spectrometer and Surveyor Liquid Chromatogram (Thermo, Hemel-Hempstead, UK). 10 μL of each sample was injected in a mobile phase consisting of 60%:40% methanol:5 mM ammonium acetate at a flow rate of 0.5 mL/minute. The column used was a BDS hypersil, C18, 50×2.1 mm with a 5 μm particle size.
Each compound was tuned with a spray voltage of 3000 V and a capillary temperature of 300° C. and values for tube lens, CID and product ions were determined.
The peak area for each compound was measured in triplicate for the 0 and 30 minute samples and the average of each was reported. The percentage remaining after 30 minutes was calculated as the average peak area of the sample after 30 minutes divided by the average peak area at 0 minutes. The RSD was 10% or lower for each compound.

T1 sequence (P28845 whole entry): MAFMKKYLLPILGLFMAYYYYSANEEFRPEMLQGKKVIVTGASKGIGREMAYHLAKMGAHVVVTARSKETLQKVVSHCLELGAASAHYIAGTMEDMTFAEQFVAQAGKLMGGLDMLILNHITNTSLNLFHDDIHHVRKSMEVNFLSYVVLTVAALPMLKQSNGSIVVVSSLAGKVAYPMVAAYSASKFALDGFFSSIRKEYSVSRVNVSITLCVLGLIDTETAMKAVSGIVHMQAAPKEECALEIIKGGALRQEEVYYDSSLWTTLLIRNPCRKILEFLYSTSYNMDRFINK

Take `O=C(c1csc(-c2cn[nH]c2)c1)N1C2CCC1CC(F)(c1nccs1)C2` (single isomer, unassigned) [XX-34, (3-Fluoro-3-thiazol-2-yl-8-aza-bicyclo[3.2.1]oct-8-yl)-[5-(1H-pyrazol-4-yl)-thiophen-3-yl]-methanone]: the pIC50 in series [1] is 6.30 to 7.00.

In the case of `O=C(c1csc(-c2cn[nH]c2)c1)N1C2CCC1CC(O)(c1ncccc1F)C2` (centres unmarked) [XX-02], the IC50 in series [1] was 0.5 to 10 µM. Take `O=C(c1csc(-c2cn[nH]c2)c1)N1C2CCC1CC(O)(c1ccncc1Cl)C2` (centres unmarked) [XX-04]: in series [1], the pIC50 is not below 7.00.

For `COc1cccc(C2(O)CC3CCC(C2)N3C(=O)c2csc(-c3cn[nH]c3)c2)n1` (centres unmarked) [XX-05], the negative logarithm of the IC50 (pIC50) in series [1] is not below 7.00. As to `COc1cccnc1C1(O)CC2CCC(C1)N2C(=O)c1csc(-c2cn[nH]c2)c1` (centres unmarked) [XX-06], the pIC50 in series [1] was not below 7.00. On the same count and under the same terms, as for `CN(C)c1cccc(C2(O)CC3CCC(C2)N3C(=O)c2csc(-c3cn[nH]c3)c2)n1` (centres unmarked) [XX-08], the figure is not below 7.00. For the compound `O=C(c1csc(-c2cn[nH]c2)c1)N1C2CCC1CC(O)(c1ncccc1C(F)(F)F)C2` (centres unmarked) [XX-09], the pIC50 in series [1] is not below 7.00. Still for that read-out and setting: the result for `COC1(c2ccccn2)CC2CCC(C1)N2C(=O)c1csc(-c2cn[nH]c2)c1` (centres unmarked) [XX-10] reads not below 7.00. Same read-out and setting: as for `COC1(c2ncccc2C)CC2CCC(C1)N2C(=O)c1csc(-c2cn[nH]c2)c1` (centres unmarked) [XX-11], the figure is not below 7.00; as for `CCOC1(c2ccccn2)CC2CCC(C1)N2C(=O)c1csc(-c2cn[nH]c2)c1` (centres unmarked) [XX-12], not below 7.00; as for `O=C(c1csc(-c2cn[nH]c2)c1)N1C2CCC1CC(F)(c1ccccn1)C2` (centres unmarked) [XX-14], not below 7.00. Still for that read-out and setting: the result for `Cc1cccnc1C1(C#N)CC2CCC(C1)N2C(=O)c1csc(-c2cn[nH]c2)c1` (centres unmarked) [XX-19] reads not below 7.00. For `O=C(c1csc(-c2cn[nH]c2)c1)N1C2CCC1CC(O)(c1ccncn1)C2` (centres unmarked) [XX-21], in series [1], the IC50 lay within 0.5 to 10 µM.

With `O=C(c1csc(-c2cn[nH]c2)c1)N1C2CCC1CC(O)(c1cncnc1)C2` (centres unmarked) [XX-22], the IC50 in series [1] was in the range of 0.5 to 10 µM. On to `O=C(c1csc(-c2cn[nH]c2)c1)N1C2CCC1CC(O)(c1ncncc1Cl)C2` (centres unmarked) [XX-23], for which the pIC50 in series [1] is not below 7.00.

In the case of `Cc1nccnc1C1(O)CC2CCC(C1)N2C(=O)c1csc(-c2cn[nH]c2)c1` (centres unmarked) [XX-25], the negative-log IC50 (pIC50) in series [1] was 6.30 to 7.00.

Regarding `N#CC1(c2ncccn2)CC2CCC(C1)N2C(=O)c1csc(-c2cn[nH]c2)c1` (centres unmarked) [XX-26], the pIC50 in series [1] is not below 7.00. Regarding `O=C(c1csc(-c2cn[nH]c2)c1)N1C2CCC1CC(O)(c1cccnn1)C2` (centres unmarked) [XX-27], the pIC50 in series [1] is not below 7.00. Moreover, the “% Parent Remaining at 30 min” value in series [2] is reported as “+++ (61-100% +++)”. Turning to `O=C(c1csc(-c2cn[nH]c2)c1)N1C2CCC1CC(O)(c1cccnn1)C2` (centres unmarked) [XX-28], the IC50 in series [1] is 0.5 to 10 µM. For `Cc1csc(C2(O)CC3CCC(C2)N3C(=O)c2csc(-c3cn[nH]c3)c2)n1` (centres unmarked) [XX-30], the pIC50 in series [1] is 6.30 to 7.00. Still for that read-out and setting: as for `Cc1cnc(C2(O)CC3CCC(C2)N3C(=O)c2csc(-c3cn[nH]c3)c2)s1` (centres unmarked) [XX-32], the figure is not below 7.00. `N#CC1(c2nccs2)CC2CCC(C1)N2C(=O)c1csc(-c2cn[nH]c2)c1` (centres unmarked) [XX-35]: in series [1], the pIC50 was not below 7.00. The “% Parent Remaining at 30 min” value in series [2] is “++ (31-60% ++)”. `O=C(c1csc(-c2cn[nH]c2)c1)N1C2CCC1CC(O)(c1ncco1)C2` (centres unmarked) [XX-37]: the negative logarithm of the IC50 (pIC50) in series [1] is not below 7.00. For the same compound, in series [2], the “% Parent Remaining at 30 min” value is listed as “+++ (61-100% +++)”. On to `Cn1ccnc1C1(O)CC2CCC(C1)N2C(=O)c1csc(-c2cn[nH]c2)c1` (centres unmarked) [XX-38], for which the IC50 in series [1] was 0.5 to 10 µM. Turning to `Cn1nccc1C1(O)CC2CCC(C1)N2C(=O)c1csc(-c2cn[nH]c2)c1` (centres unmarked) [XX-39], in series [1], the pIC50 is 6.30 to 7.00.

For the compound `O=C(c1csc(-c2cn[nH]c2)c1)N1C2CCC1CC(O)(c1nc3ccccc3s1)C2` (centres unmarked) [XX-40], the negative logarithm of the IC50 (pIC50) in series [1] was 6.30 to 7.00.

In the case of `O=C(c1csc(-c2cn[nH]c2)c1)N1C2CCC1CC(F)(c1ncccc1F)C2` (centres unmarked) [XX-41], in series [1], the pIC50 was not below 7.00. For `O=C(c1csc(-c2cn[nH]c2)c1)N1CCC(O)(c2ccccn2)CC1` [YY-01], the 50% inhibitory concentration (IC50) in series [1] fell in the range of 0.5 to 10 µM. With `O=C(c1csc(-c2cn[nH]c2)c1)N1CCC(O)(c2ncc(Cl)cc2Cl)CC1` [YY-03], the negative logarithm of the IC50 (pIC50) in series [1] was 6.30 to 7.00.

For `O=C(c1csc(-c2cn[nH]c2)c1)N1CCC(O)(c2ncccc2C(F)(F)F)CC1` [YY-04], in series [1], the negative-log IC50 (pIC50) was 6.30 to 7.00. Turning to `CCc1ccc(Cl)c(C2(O)CCN(C(=O)c3csc(-c4cn[nH]c4)c3)CC2)n1` [YY-05], the pIC50 in series [1] is 6.30 to 7.00. For the compound `O=C(c1csc(-c2cn[nH]c2)c1)N1CCC(O)(c2ccncc2F)CC1` [YY-07], the negative-log IC50 (pIC50) in series [1] was 6.30 to 7.00. In addition, in series [2], the “% Parent Remaining at 30 min” value is given as “+++ (61-100% +++)”.

Consider `O=C(c1csc(-c2cn[nH]c2)c1)N1CCC(O)(c2ncccc2F)CC1` [YY-08], for which the IC50 in series [1] lay within 0.5 to 10 µM.

With `O=C(c1csc(-c2cn[nH]c2)c1)N1CCC(F)(c2ncccc2Cl)CC1` [YY-09], the negative logarithm of the IC50 (pIC50) in series [1] was 6.30 to 7.00. Besides, the “% Parent Remaining at 30 min” value in series [2] is “+++ (61-100% +++)”.

Take `O=C(c1csc(-c2cn[nH]c2)c1)N1CCC(O)(c2ncccn2)CC1` [YY-10]: in series [1], the IC50 was in the range of 0.5 to 10 µM.

Consider `O=C(c1csc(-c2cn[nH]c2)c1)N1CCC(F)(c2ncccn2)CC1` [YY-11], for which, in series [1], the half-maximal inhibitory concentration (IC50) lay in the range of 0.5 to 10 µM.

A word on the pIC50: it is −log10 of the IC50, conventionally taken in molar units. As a reminder, the IC50 is the point on the concentration scale where inhibition reaches its midpoint.
